{"source": "patent US20060062862A1", "about": "“Cholesterol-reducing agent made of dietary fibre and cholesterol-reducing substances” (priority 2002, published 2006)", "test_system": "Male Syrian hamsters, feed enriched with 0.35% cholesterol", "experiment": "Hypocholesterolemic activity of carob fiber and statins in vivo", "parameters": "species or system Syrian hamster", "settings": "28 days, in feed: carob fiber 2.5%, simvastatin 1.5 mg %", "source_text": "Determination of the Hypocholesterolemic Activity of Carob Fiber and Statins In Vivo Hamsters are seen as a suitable animal model for propounding the present invention, even if the metabolic processes in hamsters and humans differ slightly. At all events, the two substances tested here in combination each give alone in humans a reducing effect on the serum cholesterol values, in particular on LDL cholesterol. The effect of a combined administration of carob fiber and a statin, here simvastatin, in this model should therefore also give conclusions for humans. Male Syrian hamsters (100-120 g at the start of the study) received feed enriched with 0.35% cholesterol. […] The hamsters were divided into groups of 9 animals and treated with the test substances over a period of 28 days. After the animals were anesthetized, blood was obtained for determining the serum cholesterol values. The serum cholesterol contents were determined after obtaining the plasma from whole blood using a commercially obtained enzyme test kit. The total cholesterol content of the test groups thus determined were compared with the results of a control group which received no test substances.", "data": [{"compound": "CCC(C)(C)C(=O)O[C@H]1C[C@@H](C)C=C2C=C[C@H](C)[C@H](CC[C@@H]3C[C@@H](O)CC(=O)O3)[C@H]21", "note": "[Simvastatin, simvastatin]", "values": [{"measurement": "Total cholesterol in blood serum", "setting": "0.35% cholesterol feed, control 7.65", "value": 6.50, "unit": "mmol/L"}, {"measurement": "Changes from the control in %", "setting": "total serum cholesterol vs control group", "value": 15, "unit": "%"}]}]}
